Data set [1] in a line: cytotoxicity toward NIH3T3 fibroblasts, dose response, counter-screen, cell-based, ATP luminescence, mouse fibroblasts (AID 2010).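 Further: cells exposed to compound for about 90 hours before reading.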 It counts as functional. (A counterscreen serves to expose hits that act by an unwanted route or on another target.)
Data set [2] is described as follows: inhibitors of intracellular T. cruzi replication, confirmation, NIH3T3 host cells, beta-gal luminescence (AID 2044).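 Further: intracellular parasites grown in NIH/3T3 mouse fibroblasts as host cells; luminescent beta-galactosidase reporter signal from transgenic T. cruzi replicating inside host cells; inhibitors lower the luminescence signal.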 It counts as functional, cell-based.
Data set [3] has as its target T1, Carboxy-terminal domain RNA polymerase II polypeptide A small phosphatase 1 (Homo sapiens, UniProt Q9GZU7).
T1 sequence (Q9GZU7 whole entry): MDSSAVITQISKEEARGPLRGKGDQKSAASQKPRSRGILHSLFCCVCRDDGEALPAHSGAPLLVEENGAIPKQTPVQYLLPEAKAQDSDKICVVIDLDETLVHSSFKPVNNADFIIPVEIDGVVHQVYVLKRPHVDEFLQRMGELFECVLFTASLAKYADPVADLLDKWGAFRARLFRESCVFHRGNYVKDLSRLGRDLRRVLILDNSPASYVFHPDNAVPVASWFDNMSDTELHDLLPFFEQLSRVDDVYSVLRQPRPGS
Nature of the data set: inhibitors of CTDSP1, concentration-response testing, biochemical assay, absorbance-based, actives from ultra-high-throughput screening (AID 540297). The class given is functional.

Data set [4] has as its target T2, Estrogen receptor beta (Homo sapiens, UniProt Q92731).
A further data set has as its target T3, Bcl-2-like protein 10 (Homo sapiens, UniProt Q9HD36).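 Further: fluorescence polarization from a fluorescein-labelled TR3 peptide binding purified Bcl-B.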
T3 sequence (Q9HD36 whole entry): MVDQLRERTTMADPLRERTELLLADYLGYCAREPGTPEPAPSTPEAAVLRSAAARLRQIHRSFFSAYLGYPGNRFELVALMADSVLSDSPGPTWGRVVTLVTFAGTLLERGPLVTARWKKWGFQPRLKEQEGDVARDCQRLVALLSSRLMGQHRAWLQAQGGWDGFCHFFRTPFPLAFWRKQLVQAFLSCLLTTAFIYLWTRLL
In words: displacers of TR3 peptide from Bcl-B, primary screen, selectivity assay for Bfl-1 inhibitor project, biochemical, fluorescence polarization, FITC-TR3 peptide (AID 748). (Polarisation of emitted light reports the rotation of a fluorescent probe.)

For data set [5], the target named is Protein-tyrosine kinase 2-beta (Homo sapiens, UniProt Q14289).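 Further: potency of inhibitors of PYK2 kinase phosphorylation of poly-GT substrate.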
For data set [6], the target named is T4, SUMO-activating enzyme (Homo sapiens, UniProt Q9UBT2). Nature of the data set: inhibitors of in vitro SUMOylation cascade, primary screen, biochemical, HTRF, uHTS (AID 2006). The class given is protein-complex assay. Background: In TR-FRET formats the signal depends on donor and acceptor labels being close together.
Data set [7] deals with T4, SUMO-activating enzyme. Nature of the data set: SUMOylation inhibitor hit validation, confirmation, SUMOylation inhibitor project, biochemical, AlphaScreen (AID 2018). It counts as functional.
Data set [8] in a line: A cytotoxicity screen of small molecule inhibitors of the PhoP region in Salmonella typhi identified in the primary screen. [Related pubchem assays: 1850, 1864, 1985 ]. The class given is functional.
A short description of data set [9]: THP-1 cell cytotoxicity, dose response, cytotoxicity control for Vif-APOBEC3G degradation inhibitor project, THP-1 cells (AID 1117359). It counts as functional. The note with it: Human immunodeficiency virus 1, THP-1.
The target of the next data set is T5, Protein Tat (Human immunodeficiency virus type 1 group M subtype B (isolate HXB2)(HIV-1), UniProt P04608).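 Further: tat binding to TAR RNA read out by fluorescence polarization.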
T5 sequence (P04608 whole entry): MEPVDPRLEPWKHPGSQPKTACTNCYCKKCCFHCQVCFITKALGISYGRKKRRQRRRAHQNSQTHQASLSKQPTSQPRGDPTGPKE
It counts as functional.

In the next data set the test system is Vero. In words: Vero cell cytotoxicity, cytotoxicity control for flavivirus capping enzyme inhibitors (AID 588742). The class given is functional. The conditions noted are these: Chlorocebus sabaeus.
The next data set concerns the target Cytochrome P450 2C9 (Homo sapiens, UniProt P11712).
A further data set deals with Cytochrome P450 2D6 (Homo sapiens, UniProt P10635).
In data set [10] the target is T2, Estrogen receptor beta. In words: ERβ–SRC-3 coactivator interaction inhibitors, confirmation, orthogonal assay, biochemical, ELISA, streptavidin-HRP readout (AID 1060).
A short description of data set [11]: Jurkat T cell cytotoxicity, dose response, cytotoxicity control for P. falciparum gametocyte viability project, luminescence (AID 1117277).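 Further: potency reflects loss of cellular ATP meaning fewer viable cells.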 The class given is functional, cell-based.
Data set [12] in a line: P. falciparum late gametocyte killing, dose response, luminescence (AID 1117278).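 Further: gametocytes exposed to compound for 24 hours.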 It counts as functional, cell-based.

Molecules are shown by their SMILES. Calls of active or inactive are those of the source. Where only a bound is given, the exact number is not on record here.

8 compounds from ChEMBL document CHEMBL1201862, “PubChem BioAssay data set” (2004) can be followed below.

The EC50 is the concentration that produces a half-maximal response. By IC50 is commonly meant the concentration that inhibits the measured activity by half. Broadly, the CC50 is the concentration at which the toxic effect on the cells reaches its halfway point. What is called AC50 is the midpoint of the concentration-response curve, whichever way the signal moves.

T2 sequence (Q92731 whole entry): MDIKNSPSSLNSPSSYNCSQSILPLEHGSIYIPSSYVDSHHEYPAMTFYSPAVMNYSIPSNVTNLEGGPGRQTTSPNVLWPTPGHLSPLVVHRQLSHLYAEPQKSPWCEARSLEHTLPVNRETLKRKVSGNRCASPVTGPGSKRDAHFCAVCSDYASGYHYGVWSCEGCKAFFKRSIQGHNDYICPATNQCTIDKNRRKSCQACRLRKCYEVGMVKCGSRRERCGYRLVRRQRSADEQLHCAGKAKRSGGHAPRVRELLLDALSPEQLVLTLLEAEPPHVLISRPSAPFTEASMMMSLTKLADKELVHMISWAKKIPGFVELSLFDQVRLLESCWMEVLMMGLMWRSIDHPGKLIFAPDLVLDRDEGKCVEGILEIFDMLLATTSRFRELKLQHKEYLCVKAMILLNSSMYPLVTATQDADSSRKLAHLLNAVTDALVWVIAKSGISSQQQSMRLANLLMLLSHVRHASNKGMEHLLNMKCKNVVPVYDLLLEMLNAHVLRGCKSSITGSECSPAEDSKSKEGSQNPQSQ
T4 sequence (Q9UBE0 whole entry): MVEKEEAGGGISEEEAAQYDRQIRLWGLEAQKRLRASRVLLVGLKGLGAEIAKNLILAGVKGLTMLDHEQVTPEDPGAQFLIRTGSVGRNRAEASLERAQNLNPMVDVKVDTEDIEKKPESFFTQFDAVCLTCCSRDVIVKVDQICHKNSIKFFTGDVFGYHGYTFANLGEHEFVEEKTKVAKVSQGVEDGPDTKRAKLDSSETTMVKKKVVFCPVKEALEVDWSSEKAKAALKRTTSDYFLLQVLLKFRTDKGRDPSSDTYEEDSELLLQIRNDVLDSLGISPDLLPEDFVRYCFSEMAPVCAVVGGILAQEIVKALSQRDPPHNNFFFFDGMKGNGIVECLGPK
T4 sequence (Q9UBT2 whole entry): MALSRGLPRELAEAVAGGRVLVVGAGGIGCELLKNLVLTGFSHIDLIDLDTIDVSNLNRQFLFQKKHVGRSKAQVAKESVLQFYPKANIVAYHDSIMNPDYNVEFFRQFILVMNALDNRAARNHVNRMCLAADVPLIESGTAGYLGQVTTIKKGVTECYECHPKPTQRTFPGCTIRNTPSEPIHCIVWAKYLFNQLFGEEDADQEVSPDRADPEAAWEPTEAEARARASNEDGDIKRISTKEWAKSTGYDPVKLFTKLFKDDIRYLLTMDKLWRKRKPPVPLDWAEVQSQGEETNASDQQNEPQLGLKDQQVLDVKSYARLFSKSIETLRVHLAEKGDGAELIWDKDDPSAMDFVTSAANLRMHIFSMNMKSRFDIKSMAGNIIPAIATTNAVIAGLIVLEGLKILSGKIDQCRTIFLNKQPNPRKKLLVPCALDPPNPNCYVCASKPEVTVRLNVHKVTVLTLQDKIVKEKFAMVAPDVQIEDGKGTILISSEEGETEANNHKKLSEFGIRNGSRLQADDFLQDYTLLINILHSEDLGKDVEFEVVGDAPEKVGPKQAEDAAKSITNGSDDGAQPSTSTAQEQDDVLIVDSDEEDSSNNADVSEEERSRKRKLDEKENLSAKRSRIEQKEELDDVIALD
Sequence of Protein-tyrosine kinase 2-beta (Q14289 whole entry): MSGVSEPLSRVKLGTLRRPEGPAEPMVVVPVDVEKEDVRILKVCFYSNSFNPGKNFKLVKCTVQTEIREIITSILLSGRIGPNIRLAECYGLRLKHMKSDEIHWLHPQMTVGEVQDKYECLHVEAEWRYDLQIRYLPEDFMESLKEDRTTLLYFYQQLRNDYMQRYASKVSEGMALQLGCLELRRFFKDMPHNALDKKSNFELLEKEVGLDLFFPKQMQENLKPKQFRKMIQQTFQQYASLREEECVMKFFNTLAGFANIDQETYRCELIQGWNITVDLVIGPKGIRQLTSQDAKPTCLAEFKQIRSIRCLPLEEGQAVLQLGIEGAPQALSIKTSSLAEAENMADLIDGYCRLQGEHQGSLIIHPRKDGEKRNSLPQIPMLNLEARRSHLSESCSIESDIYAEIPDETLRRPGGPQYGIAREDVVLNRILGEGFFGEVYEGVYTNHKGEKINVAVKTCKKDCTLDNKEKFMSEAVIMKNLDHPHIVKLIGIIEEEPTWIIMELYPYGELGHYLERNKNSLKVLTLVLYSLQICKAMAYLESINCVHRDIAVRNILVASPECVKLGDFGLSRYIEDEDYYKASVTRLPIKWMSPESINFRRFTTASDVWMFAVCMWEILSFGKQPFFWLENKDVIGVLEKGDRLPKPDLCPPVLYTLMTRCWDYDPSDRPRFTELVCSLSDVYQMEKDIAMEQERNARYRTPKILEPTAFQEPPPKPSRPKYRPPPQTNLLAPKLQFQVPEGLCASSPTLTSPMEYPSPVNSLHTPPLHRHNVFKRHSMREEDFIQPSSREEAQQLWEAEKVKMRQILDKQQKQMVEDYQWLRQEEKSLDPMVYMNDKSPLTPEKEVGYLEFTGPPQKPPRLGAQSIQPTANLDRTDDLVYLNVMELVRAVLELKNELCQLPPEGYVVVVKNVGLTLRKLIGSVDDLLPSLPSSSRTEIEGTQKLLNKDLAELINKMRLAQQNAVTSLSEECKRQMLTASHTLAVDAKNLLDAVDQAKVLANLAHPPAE
Sequence of Cytochrome P450 2C9 (P11712 whole entry): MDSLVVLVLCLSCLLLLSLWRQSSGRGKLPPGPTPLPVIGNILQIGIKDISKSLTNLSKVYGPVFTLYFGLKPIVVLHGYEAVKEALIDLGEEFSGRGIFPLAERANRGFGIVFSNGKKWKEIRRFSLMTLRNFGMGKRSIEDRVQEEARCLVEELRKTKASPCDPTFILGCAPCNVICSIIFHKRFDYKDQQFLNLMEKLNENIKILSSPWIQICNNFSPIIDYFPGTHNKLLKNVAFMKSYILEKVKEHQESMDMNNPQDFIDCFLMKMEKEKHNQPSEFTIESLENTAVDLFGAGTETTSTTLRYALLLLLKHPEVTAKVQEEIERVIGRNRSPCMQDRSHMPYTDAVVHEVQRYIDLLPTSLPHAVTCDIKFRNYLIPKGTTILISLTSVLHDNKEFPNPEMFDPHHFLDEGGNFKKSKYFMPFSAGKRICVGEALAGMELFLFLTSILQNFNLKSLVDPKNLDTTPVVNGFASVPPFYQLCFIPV
Sequence of Cytochrome P450 2D6 (P10635 whole entry): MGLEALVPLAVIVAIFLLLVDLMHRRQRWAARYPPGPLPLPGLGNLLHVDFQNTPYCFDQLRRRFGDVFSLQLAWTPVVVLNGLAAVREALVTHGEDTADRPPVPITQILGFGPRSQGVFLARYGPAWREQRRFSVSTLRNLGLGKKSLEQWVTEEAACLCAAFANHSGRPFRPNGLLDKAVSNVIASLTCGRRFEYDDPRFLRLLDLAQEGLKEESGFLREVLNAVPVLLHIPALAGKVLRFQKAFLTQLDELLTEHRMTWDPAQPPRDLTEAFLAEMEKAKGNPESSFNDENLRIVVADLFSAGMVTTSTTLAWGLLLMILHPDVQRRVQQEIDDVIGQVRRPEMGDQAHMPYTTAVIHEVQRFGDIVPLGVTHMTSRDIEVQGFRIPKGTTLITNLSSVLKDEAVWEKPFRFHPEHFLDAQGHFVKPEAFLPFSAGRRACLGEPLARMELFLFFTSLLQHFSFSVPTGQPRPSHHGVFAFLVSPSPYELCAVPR

With `O=C(CCC1CCCN(Cc2ccc(O)c(Cl)c2)C1)NCc1ccccc1F` (stereo not given), the EC50 was 0.077 µM (active) in “cells”, > 60 µM (not active) in data set [1] and < 0.1 µM (active) in data set [2].
With `COc1ccccc1-c1nnc2sc(-c3cnccn3)nn12`, the values for the IC50 (in data set [3]; at Estrogen receptor beta [4]; on Bcl-2-like protein 10) were 9.06 µM (active), 4.15 µM (active) and 28.5 µM (active), respectively.
Turning to `Cn1c2ccccc2c(=O)n2c(=O)c3ccccc3cc12`, the IC50 was > 69.5 µM (not active) in data set [5], 10.9 µM (active) at SUMO-activating enzyme [6] and 3.28 µM (active) on SUMO-activating enzyme [7].
In the case of `CCOc1ccc(NC(=O)CN(C)C(=O)c2ccccc2CCc2ccccc2)cc1OCC`, in data set [8], the EC50 is > 50 µM (active).
Regarding `CN=c1ccc(Br)cc(C(=O)/C=C/c2ccc3c(c2)OCO3)c1O`, the CC50 (in data set [9]; with Vero) was > 40 µM (active) each time. Further, the concentration for half-maximal inhibition (IC50) on Protein Tat is 40.7 µM (inconclusive). Moreover, the AC50 entry at Cytochrome P450 2C9 was “inconclusive”; on Cytochrome P450 2D6, 10 µM (inconclusive).
In the case of `CN1CCN(CC(=O)Nc2sc3c(c2C#N)CCC3)CC1`, the IC50 on Estrogen receptor beta [10] was > 50 µM (not active).
Consider `Cc1cc(C(=O)NCCC2=CCCCC2)no1`, for which the IC50 in data set [11] was > 83.3 µM (inactive); in data set [12], > 109 µM (inactive).
Turning to `O=C(N/N=C/c1ccc2ccccc2c1)c1ccc(COc2ccc3c(c2)CCC3)o1`, the IC50 is > 69.5 µM (not active) in data set [5] and 3.24 µM (active) in data set [3].
